Reference: patent publication US20050228180A1, “Alpha, omega-dicarboximide derivatives as useful uro-selective a1a adrenoceptor blockers” (priority 2002, published 2005)
Structures can show the parent of a compound that is named as a salt.

Molecular target: T1, α1D adrenoceptor (aorta) (Rattus norvegicus, UniProt P23944)
T1 construct: Isolated tissues were mounted in organ bath containing Krebs Henseleit buffer; from tissue; host or cells: isolated rat aorta
T1 sequence (P23944 1-561): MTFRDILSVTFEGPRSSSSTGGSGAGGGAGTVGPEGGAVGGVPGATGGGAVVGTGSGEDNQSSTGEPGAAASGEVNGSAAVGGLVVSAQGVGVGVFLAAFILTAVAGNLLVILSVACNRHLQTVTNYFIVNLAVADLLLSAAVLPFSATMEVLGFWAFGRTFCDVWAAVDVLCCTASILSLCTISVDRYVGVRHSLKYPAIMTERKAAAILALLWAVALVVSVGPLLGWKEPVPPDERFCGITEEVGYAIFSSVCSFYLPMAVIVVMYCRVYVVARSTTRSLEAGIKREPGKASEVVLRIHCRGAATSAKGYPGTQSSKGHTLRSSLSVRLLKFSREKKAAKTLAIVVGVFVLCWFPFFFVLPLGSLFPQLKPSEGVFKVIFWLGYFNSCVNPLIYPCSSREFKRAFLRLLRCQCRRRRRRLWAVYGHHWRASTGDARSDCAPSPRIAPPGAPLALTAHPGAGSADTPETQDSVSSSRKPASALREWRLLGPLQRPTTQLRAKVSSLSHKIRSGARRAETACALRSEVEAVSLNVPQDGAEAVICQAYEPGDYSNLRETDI
Experiment: In vitro functional assay, isolated aorta, norepinephrine contraction
Format: cell-based
Details: read-out: α Adrenoceptor Subtype (pKB) α1D (converted)
Summary of the method: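 Rat aorta, spleen and prostate strips from urethane-anaesthetised male Wistar rats in Krebs-Henseleit at 37 °C (95% O2/5% CO2), 2 g or 1 g resting tension, 2 h equilibration. Norepinephrine (aorta) or phenylephrine (spleen, prostate) contraction curves run without and with compound at […]; antagonist affinity given as pKB.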

Kb: 8.32 nM
SMILES: CC(C)Oc1ccccc1N1CCN(CCCN2C(=O)C3CC(O)C(O)CC3C2=O)CC1 (stereo not shown) [Compound No. 23, 2-[3-{4-(2-Isopropoxyphenyl)piperazin-1-yl}propyl]-5,6-dihydroxy-3a,4,5,6,7,7a, hexahydro-1H-isoindole-1,3(2H)-dione-hydrochloride]
